# Data published in paper PMC11707430, “Novel antibiotics against Staphylococcus aureus without detectable resistance by targeting proton motive force and FtsH” (MedComm, 2025).
# Assays:
# [1] = test system: S. aureus ATCC 43300; assay: S. aureus-related abscess model; assay type: in vivo, ICR mice; details: STK848198 combined with AMP, s.c.
# Description: S. aureus-related abscess model. Six to seven-week-old female, specific pathogen free outbred ICR mice were anesthetized with 1% sodium pentobarbital (50 mg/kg). The back hair was shaved with an electric razor. A 50 μL of S. aureus ATCC 43300 suspension containing 1× 10^8 CFU/ml cells was subcutaneously injected (s.c.) into the back of the mice. The mice were randomized into four groups (N = 5-6 mice per group): (1) Vehicle group, (2) C218-0546 (30 mg/kg) or STK848198 (30 mg/kg) treatment group, (3) Amikacin (25 mg/kg) treatment group, (4) C218-0546 ([…]) treatment group. Each group was administrated by s.c. after 1h post infection. The mice were sacrificed at 24h post infection, and their lesions were removed and homogenized for viable bacterial cells counting. Meanwhile, the lesions were dislocated and immersed in 4% paraformaldehyde for hematoxylin-eosin (H&E) staining, Giemsa staining and immunohistochemical analysis, respectively^22.
# [2] = Plasma protein binding rate; assay type: in vitro ADME; details: human plasma
# Description: Plasma protein binding rate calculation. Human plasma was purchased from IPHASE (Beijing, China). C218-0546 or STK848198 was added into human plasma to a final concentration of 0.5, 2 and 5 μg/mL, respectively. Warfarin sodium and PBS was used as positive control and blank control, respectively. The samples were added to the upper side of the dialysis membrane (IPHASE, Beijing, China) and PBS was added to its lower side. After incubation at room temperature for 12h, the concentration of C218-0546 and STK848198 at the both sides were detected by the LC-MS. The plasma protein binding rate (%) was calculated as: (1-Cf/Cp) × 100%. Cf, concentration of free compounds (lower side). Cp, plasma protein binding compounds (upper side).
# [3] = test system: S. aureus biofilm; assay: Biofilm determination by XTT assay; assay type: cell-based
# Description: Biofilm determination by XTT assay. To determine the biofilm inhibition, overnight cultures of S. aureus were diluted with TSB containing 2-fold diluted antimicrobials at the ratio of 1: 100 and added to a 96-well plate. After incubation statically at 37 ℃ for 24h, the supernatant was carefully removed and washed with PBS. (2,3-Bis-(2-methoxy-4-nitro-5-sulfophenyl)-2H-tetrazolium-5-carboxanilide) (XTT, 0.2 mg/ml) and Phenazin (methylsufate) (PMS, 0.02 mg/ml) were mixed with 1× PBS and added to each well of the 96-well plate (100 μL/well). The plate was then incubated for 3h in the dark, and the absorbance was measured at 490 nm (A490nm). For biofilm eradication, overnight cultures of S. aureus were diluted with fresh TSB at 1:100 and incubated for 24h to pre-form biofilms. Subsequently, the supernatant was removed and washed with PBS, and 200 μL of TSB in the presence of 2-fold diluted antimicrobials was added to each well. After incubation at 37 ℃ for 24h, the supernatant was removed and stained with XTT as described above^7.
# [4] = test system: Salmonella typhimurium (TA97a, TA98, TA100, and TA1535) and E. coli WP2 uvrA (pKM101); assay: Ames test (overall); assay type: cell-based
# Description: Ames test. Genotoxicity of the compounds was determined by Ames Kit (IPHASE, Beijing, China) containing Salmonella typhimurium (TA97a, TA98, TA100, and TA1535) and E. coli WP2 uvrA (pKM101). Diclofenac and 2-aminofluorene were used as positive controls for TA97a and TA98. Methyl methanesulfonate and 2-aminofluorene were used as positive controls for TA100. Methyl methanesulfonate and 2-aminoanthracene were used as positive controls for WP2 uvrA (pKM101). NaN3 and 2-aminoanthracene were used as positive controls for TA1535. The bottom and top layer culture medium, and S9 mixed solution were prepared according to the manufacturer’s instructions. After incubation at 37℃ for 48h, the colonies were counted.
# [5] = target: T1, hERG (Homo sapiens, UniProt Q12809); assay: hERG patch clamp; assay type: cell-based; details: HEK293 cells expressing hERG channels, pH 7.4, hERG potassium channels
# T1 construct: expressed in transfected cells; host or cells: HEK293
# Description: hERG. hERG channels expressed HEK293 cell line was cultured in DMEM at 37℃ with 10% FBS to ~70% of log phase. Then, the cells were washed with PBS and digested with trypsin. After incubation at 37 ℃ for 2-3 min, the cells were washed again and adjusted to ~ 2×10^3/mL. The patch clamp detection experiment was performed after the cells attached to the cell wall. The extracellular fluid was prepared as 137 mM NaCl,1 mM MgCl2‧6H2O, 4 mM KCl,1.8 mM CaCl2‧2H2O, 10 mM D-Glucose, 10 mM HEPES, pH=7.4. And the intracellular fluid was prepared as 140 mM KCl,10 mM EGTA, 5 mM MgCl2‧6H2O, 10 mM HEPES, 5 mM Mg-ATP, pH=7.2. The current data was collected by using Pathmaster software. And the peak current inhibition rate was calculated as: (1−Peak tail current compoundPeak tail current veℎicle). The concentration-effects were fitted by the Hill equation: I=Imax∙(1/［1+（C1/2/［C］）^h), where [C], C1/2, and h represented the drug concentration, half inhibitory concentration (IC50), Hill coefficient, respectively^19.
# [6] = test system: S. aureus; assay: Drug combination by checkerboard dilution assay; assay type: cell-based; details: STK848198 with SM, TOB, AMP, fosfomycin, SIS, gentamycin
# Description: Drug combination assay. The potential combinational antimicrobial effects between individual drugs were determined by checkerboard dilution assay. Briefly, overnight cultured S. aureus was diluted in MH broth to ~1× 10^6 CFU/mL. Compounds were two-fold diluted by MH broth, then 50 μL of each compound were added to each well vertically and horizontally, respectively, in a 96-well cell culture plate. […] The fractional inhibitory concentration index (FICI) was calculated as (MICA in combination/MICA alone) + (MICB in combination/MICB alone)^20.
# [7] = In vivo toxicity analysis; design: species or system ICR mice; details: acute, i.p. 30 mg/kg, 24 h
# Description: In vivo toxicity analysis. For acute in vivo toxicity determination, specific ICR female mice (N = 6 per group) were randomly divided into 3 groups. The mice were intraperitoneally injected with EL+ ethanol (vehicle group), or 30 mg/kg of […]=0546 or STK848198. Twenty-four hours post-administration, blood samples were collected from the ophthalmic venous plexus and the hematological parameters of white blood cell count (WBC), neutrophil ratio (N%), red blood cell count (RBC), hemoglobin levels (HGH), and platelet count (PLT) were measured. Meanwhile, serum samples were also collected by centrifuged at 4000 rpm for 10 min. And the biomarkers of alanine aminotransferase (ALT), urea nitrogen (BUN), and creatine kinase (CK) for liver, kidney and heart function monitoring, respectively, were also analyzed. Then, the mice were euthanized, and the organs of heart, liver, spleen, lungs and kidneys were removed and fixed in 4% neutral paraformaldehyde for Hematoxylin and eosin (H&E) staining. In addition, for 7-day in vivo toxicity detection, specific ICR female mice (N=5 per group) were intraperitoneally injected with 30 mg/kg of […]=0546 or STK848198 every day for a total of 7 days. The body weight was monitored, and the blood samples and organs were also collected and analyzed as described above^43.
# [8] = test system: S. aureus; assay: MIC determination by microbroth dilution; assay type: cell-based, Staphylococcus aureus; details: Staphylococcus aureus; structure-activity relationship of C218-0546 analogs (Figure S1); read-out: MIC
# Description: Minimal inhibitory concentration (MIC) determination. The detection of MIC was performed by the microbroth dilution method with reference to the previously report by Wang et al^2. Briefly, the fresh bacterial suspension was adjusted to a McF standard equivalent of 0.5 (~1.5 × 10^8 CFU/mL) and then 100-fold diluted with MH broth. Fifty microliters of bacterial suspension with equal volume of serially diluted compounds (1-128 µg/mL) were added into a 96-well cell plate (Corning Costar, the United States) and incubated at 37°C for 16-18 h. The bacterial suspension without compounds was used as a negative control. The lowest concentration that inhibited visible bacterial growth was considered as the value of MIC.
# T1 sequence (Q12809 whole entry): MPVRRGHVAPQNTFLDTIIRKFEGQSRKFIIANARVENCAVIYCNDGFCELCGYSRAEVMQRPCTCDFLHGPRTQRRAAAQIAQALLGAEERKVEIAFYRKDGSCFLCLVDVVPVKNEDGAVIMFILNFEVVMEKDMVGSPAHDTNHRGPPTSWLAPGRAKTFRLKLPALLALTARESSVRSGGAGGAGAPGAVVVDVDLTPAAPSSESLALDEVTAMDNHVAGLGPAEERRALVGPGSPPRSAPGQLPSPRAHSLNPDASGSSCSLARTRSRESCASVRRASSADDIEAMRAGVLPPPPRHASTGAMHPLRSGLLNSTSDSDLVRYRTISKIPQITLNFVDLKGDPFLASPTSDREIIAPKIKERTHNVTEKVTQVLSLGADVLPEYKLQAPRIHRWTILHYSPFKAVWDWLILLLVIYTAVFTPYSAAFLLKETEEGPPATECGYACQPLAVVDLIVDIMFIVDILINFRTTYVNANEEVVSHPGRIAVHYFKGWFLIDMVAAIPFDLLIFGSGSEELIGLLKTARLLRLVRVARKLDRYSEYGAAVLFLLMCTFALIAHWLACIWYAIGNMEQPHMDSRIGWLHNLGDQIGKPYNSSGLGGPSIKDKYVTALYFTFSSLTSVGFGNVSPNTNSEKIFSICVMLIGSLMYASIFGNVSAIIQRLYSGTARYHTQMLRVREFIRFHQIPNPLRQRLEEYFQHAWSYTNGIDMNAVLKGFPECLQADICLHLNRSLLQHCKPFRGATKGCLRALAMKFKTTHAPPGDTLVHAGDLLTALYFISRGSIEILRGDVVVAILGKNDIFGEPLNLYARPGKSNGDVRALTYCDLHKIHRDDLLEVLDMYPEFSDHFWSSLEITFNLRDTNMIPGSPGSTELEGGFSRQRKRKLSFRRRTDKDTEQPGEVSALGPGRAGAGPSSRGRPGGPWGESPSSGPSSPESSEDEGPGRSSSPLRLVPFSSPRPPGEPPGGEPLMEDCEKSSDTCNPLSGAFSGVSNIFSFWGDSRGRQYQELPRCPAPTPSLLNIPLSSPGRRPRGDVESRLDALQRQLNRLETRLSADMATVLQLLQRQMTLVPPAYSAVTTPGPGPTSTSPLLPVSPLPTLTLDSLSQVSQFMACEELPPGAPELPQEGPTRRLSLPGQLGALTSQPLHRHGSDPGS
smiles,measurement,setting,value
Cc1nc2c(-c3ccc(Cl)cc3)cnn2c(O)c1Cc1ccccc1 [STK848198],"in vivo synergy, viable cell counts in abscess",[1],exhibited synergy
same,plasma protein binding rate,[2],high
same,concentration inhibiting biofilm viability,[3]; biofilm inhibition,0.125 µg/mL
same,concentration reducing preformed biofilm viability,[3]; preformed biofilm,0.5 µg/mL
same,genotoxicity,[4],no genotoxicity
same,IC50,[5],> 30 µM
same,FICI,[6],≤ 0.5
same,"erythrocyte, leukocyte, platelet parameters, ALT, BUN, CK vs vehicle",[7],No significant difference
same,MIC,[8],2 µg/mL
